# System: rat neonatal microglia
# Assay: Short-term microglia cell viability: LDH release
# Conditions: short-term cell viability (90 min)
row,SMILES,LDH50 (concentration that caused 50% release of the total LDH content of microglia cells) [µM]
1,"[C-]#[N+]C(C)(C)C[C@@H]1C[C@H](C)[C@H]2CC[C@H](C)[C@@]3([N+]#[C-])CCC(=C)[C@@H]1[C@H]23 [Compound 2, (–)-8,15-diisocyano-11(20)-amphilectene]",>10
2,"[C-]#[N+]C(C)(C)C[C@@H]1C[C@H](C)[C@H]2CC[C@H](C)[C@@]3([N+]#[C-])CCC(=O)[C@@H]1[C@H]23 [Compound 6, 8,15-diisocyano-11-amphilectone]",>10
3,"[C-]#[N+][C@@]1(C)CC[C@H]2[C@H]3[C@@H](C(=C)CC[C@H]31)[C@H](CC(=C)C)C[C@@H]2C [Compound 1, 7-isocyano-11(20)-15(16)-amphilectadiene]",>10
4,"[C-]#[N+][C@@]12CCC(=C)[C@H]3[C@H](CC(C)(C)NC(=O)CN4CCC4=O)C[C@H](C)[C@@H](CC[C@@H]1C)[C@@H]32 [Compound 5, monamphilectine A]",>10
5,"[C-]#[N+][C@@]12CCC(=C)[C@H]3[C@H](CC(C)(C)NC=O)C[C@H](C)[C@@H](CC[C@@H]1C)[C@@H]32 [Compound 4, 8-isocyano-11(20)-ene-15-amphilectaformamide]",>10

# From article PMC3272584 (Bioorganic & medicinal chemistry, 2011)
